Results published in ChEMBL document CHEMBL5465560, “Selectivity Literature for EUbOPEN Chemogenomic Library” (2024).

How the values were obtained:
[1] = target: Tyrosine-protein kinase Lyn (Homo sapiens, UniProt P07948); experiment: Selectivity interaction (KinomeScan (DiscoverX)) EUB0000666a LYN; conditions: at 10 µM
[2] = target: Histone-lysine N-methyltransferase SETDB1 (Homo sapiens) (UniProt Q15047); experiment: Selectivity interaction (PWWP, WD40, and Tudor domain panel (DSLS measurements, literature)) EUB0000270b SETDB1
[3] = target: T1, Cyclin-dependent kinase 11A (Homo sapiens) (UniProt Q9UQ88); conditions: at 10 µM
T1 sequence (whole entry): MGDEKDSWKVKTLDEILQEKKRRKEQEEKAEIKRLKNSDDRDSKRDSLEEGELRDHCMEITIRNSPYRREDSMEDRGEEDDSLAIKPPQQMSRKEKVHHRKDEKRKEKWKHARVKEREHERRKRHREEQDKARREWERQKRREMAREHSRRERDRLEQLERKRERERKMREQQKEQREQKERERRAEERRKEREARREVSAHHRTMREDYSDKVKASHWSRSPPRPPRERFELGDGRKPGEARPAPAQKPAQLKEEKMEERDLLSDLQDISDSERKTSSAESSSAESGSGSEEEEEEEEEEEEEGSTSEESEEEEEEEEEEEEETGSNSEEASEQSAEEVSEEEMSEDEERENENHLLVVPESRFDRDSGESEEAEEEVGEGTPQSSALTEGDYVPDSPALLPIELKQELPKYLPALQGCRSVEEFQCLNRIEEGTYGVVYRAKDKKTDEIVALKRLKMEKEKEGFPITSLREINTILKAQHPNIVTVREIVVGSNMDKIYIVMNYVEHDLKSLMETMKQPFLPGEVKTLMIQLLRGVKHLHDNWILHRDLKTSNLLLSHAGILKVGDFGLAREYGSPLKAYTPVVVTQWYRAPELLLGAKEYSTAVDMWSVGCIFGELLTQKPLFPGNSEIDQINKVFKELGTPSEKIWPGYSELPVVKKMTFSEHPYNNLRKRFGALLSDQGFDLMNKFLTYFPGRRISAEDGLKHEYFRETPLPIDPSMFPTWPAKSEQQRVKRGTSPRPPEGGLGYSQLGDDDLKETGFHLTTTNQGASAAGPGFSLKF

[4] = target: T2, Tyrosine-protein kinase ITK/TSK (Homo sapiens) (UniProt Q08881); conditions: at 10 µM
T2 sequence (whole entry): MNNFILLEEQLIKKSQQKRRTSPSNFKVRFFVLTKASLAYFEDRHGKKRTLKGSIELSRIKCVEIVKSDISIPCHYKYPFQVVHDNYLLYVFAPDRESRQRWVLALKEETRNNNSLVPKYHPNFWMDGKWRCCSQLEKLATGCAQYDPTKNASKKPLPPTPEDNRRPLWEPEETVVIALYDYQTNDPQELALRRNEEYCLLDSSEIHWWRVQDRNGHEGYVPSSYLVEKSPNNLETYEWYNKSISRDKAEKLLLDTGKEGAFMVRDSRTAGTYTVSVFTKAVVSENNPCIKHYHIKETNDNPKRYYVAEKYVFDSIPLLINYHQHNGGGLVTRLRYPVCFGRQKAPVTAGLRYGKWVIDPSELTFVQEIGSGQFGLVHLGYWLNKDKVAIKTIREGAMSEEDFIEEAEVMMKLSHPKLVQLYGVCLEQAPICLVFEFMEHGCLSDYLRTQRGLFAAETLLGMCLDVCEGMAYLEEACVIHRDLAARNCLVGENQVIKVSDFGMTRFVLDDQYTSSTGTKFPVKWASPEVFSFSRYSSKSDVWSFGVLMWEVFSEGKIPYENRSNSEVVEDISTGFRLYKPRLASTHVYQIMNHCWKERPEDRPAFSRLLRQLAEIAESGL

[5] = target: Tyrosine-protein kinase FRK (Homo sapiens) (UniProt P42685); conditions: at 10 µM
[6] = target: T3, Dual serine/threonine and tyrosine protein kinase (Homo sapiens) (UniProt Q6XUX3); experiment: Selectivity interaction (KinomeScan (DiscoverX)) EUB0001550a DSTYK; conditions: at 1 µM
T3 sequence (whole entry): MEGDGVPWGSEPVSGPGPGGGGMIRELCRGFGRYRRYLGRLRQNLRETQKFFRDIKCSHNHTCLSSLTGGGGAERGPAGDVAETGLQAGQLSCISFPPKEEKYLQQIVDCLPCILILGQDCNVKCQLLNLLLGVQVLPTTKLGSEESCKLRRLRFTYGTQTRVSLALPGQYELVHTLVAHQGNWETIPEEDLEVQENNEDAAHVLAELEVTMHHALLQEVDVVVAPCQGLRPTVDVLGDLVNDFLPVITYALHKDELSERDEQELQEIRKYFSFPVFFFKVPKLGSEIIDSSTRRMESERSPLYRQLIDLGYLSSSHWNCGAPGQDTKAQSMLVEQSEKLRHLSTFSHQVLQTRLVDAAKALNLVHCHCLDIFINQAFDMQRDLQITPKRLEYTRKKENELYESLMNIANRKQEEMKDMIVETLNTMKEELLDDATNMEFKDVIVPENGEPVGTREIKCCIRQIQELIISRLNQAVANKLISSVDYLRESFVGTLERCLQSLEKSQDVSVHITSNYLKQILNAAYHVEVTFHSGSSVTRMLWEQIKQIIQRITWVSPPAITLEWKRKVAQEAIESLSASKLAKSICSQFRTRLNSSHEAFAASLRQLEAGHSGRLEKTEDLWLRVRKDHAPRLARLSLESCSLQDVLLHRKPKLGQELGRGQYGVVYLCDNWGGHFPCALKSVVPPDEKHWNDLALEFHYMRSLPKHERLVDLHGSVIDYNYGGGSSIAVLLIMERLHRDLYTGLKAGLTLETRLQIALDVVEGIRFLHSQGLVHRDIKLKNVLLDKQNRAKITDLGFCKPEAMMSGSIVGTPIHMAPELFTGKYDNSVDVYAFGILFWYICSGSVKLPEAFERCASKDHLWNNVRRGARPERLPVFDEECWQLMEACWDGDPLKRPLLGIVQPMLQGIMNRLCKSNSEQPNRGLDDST

Chain of Tyrosine-protein kinase Lyn (P07948 2-512 limits assumed): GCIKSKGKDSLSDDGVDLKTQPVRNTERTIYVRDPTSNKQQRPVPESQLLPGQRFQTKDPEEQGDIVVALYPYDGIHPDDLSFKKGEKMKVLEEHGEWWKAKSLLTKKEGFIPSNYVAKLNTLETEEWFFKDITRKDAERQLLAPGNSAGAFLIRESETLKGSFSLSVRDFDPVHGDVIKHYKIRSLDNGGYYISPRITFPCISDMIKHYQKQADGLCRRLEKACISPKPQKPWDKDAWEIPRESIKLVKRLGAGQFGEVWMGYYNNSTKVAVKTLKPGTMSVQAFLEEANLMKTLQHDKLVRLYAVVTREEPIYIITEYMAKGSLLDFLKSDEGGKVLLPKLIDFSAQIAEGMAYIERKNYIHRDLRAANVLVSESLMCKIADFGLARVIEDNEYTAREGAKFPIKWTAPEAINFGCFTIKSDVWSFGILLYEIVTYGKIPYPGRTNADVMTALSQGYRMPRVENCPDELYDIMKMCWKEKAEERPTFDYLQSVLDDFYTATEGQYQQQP
Chain of Tyrosine-protein kinase FRK (Homo sapiens) (P42685 whole entry): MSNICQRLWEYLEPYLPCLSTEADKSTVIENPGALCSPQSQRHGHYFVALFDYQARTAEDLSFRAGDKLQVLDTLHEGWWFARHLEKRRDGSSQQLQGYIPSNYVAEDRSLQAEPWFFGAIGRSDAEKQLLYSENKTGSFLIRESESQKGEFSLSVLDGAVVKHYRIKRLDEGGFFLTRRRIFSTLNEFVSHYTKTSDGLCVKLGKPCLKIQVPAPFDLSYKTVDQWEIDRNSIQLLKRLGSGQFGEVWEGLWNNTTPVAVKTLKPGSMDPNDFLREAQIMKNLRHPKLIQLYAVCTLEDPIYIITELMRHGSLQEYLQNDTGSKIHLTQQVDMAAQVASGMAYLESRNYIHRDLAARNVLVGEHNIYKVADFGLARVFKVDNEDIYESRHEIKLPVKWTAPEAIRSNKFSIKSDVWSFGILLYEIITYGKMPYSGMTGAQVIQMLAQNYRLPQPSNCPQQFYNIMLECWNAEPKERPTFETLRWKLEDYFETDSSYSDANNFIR

O=C(NOC[C@H](O)CO)c1ccc(F)c(F)c1Nc1ccc(I)cc1F
% of control [1]: 72%

Cc1cc(CN)cc(C)c1-c1ncn(C)c1-c1cncn1C
dTagg [2]: 0.9 K

Cc1cc([C@@H](C)Nc2ccccc2C(=O)O)c2nc(N3CCOCC3)cc(=O)n2c1 [AZD-6482]
% of control [3]: 91%
% of control [4]: 98%
% of control [5]: 83%

CN(C)CC#Cc1ccc2[nH]c3c(c2c1)-c1nc(N)ncc1CCC3
% of control [6]: 5.2%
